In patent publication US8815877B2, “Serine/threonine kinase inhibitors” (Genentech, Inc., priority 2011, dated 2014):

Tests used:
[1] = system: MEK1 phosphorylation at S298; experiment: Cellular PAK IC50 assay: MEK1 (S298) phosphorylation by HTRF in EBC1 cells; type: cell-based; conditions: Homo sapiens, EBC-1, 2 h treatment, media containing 0.1% FBS
Procedure: Cellular PAK IC50 Assay Protocol
Group I PAKs (PAK1-3) are activated upon binding to the Rho GTPases, Rac 1 and Cdc42. Activated group I PAKs phosphorylate MEK1 at Serine 298 (S298), one of the two sites in the catalytic domain that is important for stable association between Raf and MEK1 and subsequent MAPK activation. The inhibition of group I PAKs in EBC1 cells is assessed by detecting changes in the level of MEK1 phosphorylation at S298 using homogenous time-resolved fluorescence (HTRF). Inhibitory activity was estimated by treating 2×10^4 EBC1 cells for 2 h with PAK inhibitors in media containing 0.1% FBS. Following inhibitor treatment, cells were lysed with 25 μL of 1× cellular kinase lysis buffer (Cisbio) containing 1× cellular kinase blocking reagent (Cisbio). Cellular lysis was carried out at 4° C. for 2 h with constant shaking before lysate (16 μL) was transferred to white 384-well ProxiPlates™ (Perkin Elmer). Anti-total MEK1 antibody labeled with Europium cryptate donor (1 ng/well) (Cell Signaling Technologies catalog number 2352) and anti-phospho MEK1 (S298) antibody labeled with d2 acceptor (Cell Signaling Technologies catalog number 9128) (10 ng/well) were prepared in 1× detection buffer (CisBio) and added to each well of the assay plate and allowed to incubate at RT overnight. The following day the fluorescence emission from each well was measured in EnVision® (Perkin Elmer) at an excitation of 330 nm and dual emission wavelengths of 615 nm and 665 nm. The signal in each well at 665 nm was multiplied by 10,000 and divided by the signal in the same well at 615 nm to obtain a ratio. Ratio values ([665*10,000]÷615) were plotted as a function of the concentration of compound to determine IC50 values.

[2] = molecular target: T1, human recombinant GST-PAK1-KD protein (Homo sapiens, UniProt Q13153); experiment: GST-PAK1-KD (Kinase Domain) IC50 biochemical assay (microfluidic mobility shift); conditions: GST-PAK1-KD inhibition assay
T1 construct: residues #249-545 of human PAK1, UniProtKP/Swiss Q13153; made in house; host or cells: Sf9 insect cells (pAcGP67 baculovirus expression vector)
T1 sequence (Q13153 249-545): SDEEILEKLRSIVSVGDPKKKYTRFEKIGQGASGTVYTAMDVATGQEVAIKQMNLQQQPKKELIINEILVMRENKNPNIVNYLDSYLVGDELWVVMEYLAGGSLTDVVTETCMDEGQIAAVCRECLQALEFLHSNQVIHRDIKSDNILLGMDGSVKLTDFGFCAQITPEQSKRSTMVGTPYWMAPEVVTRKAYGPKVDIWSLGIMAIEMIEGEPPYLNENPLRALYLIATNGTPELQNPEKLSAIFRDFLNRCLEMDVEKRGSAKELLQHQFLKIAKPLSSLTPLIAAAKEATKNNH
Procedure: GST-PAK1-KD (Kinase Domain) IC50 Biochemical Assay Protocol
Activity of human recombinant GST-PAK1-KD protein was assessed in vitro assay by observing the phosphorylation of a fluorogenic peptide substrate.
The peptide substrate is a consensus sequence based on various PAK1 substrates reported in the scientific literature. […] Incubations were carried out at 22° C. in MatriCal MP101 384-well Metriplates™. […] Following the 30-minute incubation, the assay mixtures were quenched by the addition of 3 μL of 250 mM EDTA, and the substrate and phosphorylated product were separated by capillary electrophoresis and detected using LabChip® Caliper 3000 (Caliper Life Sciences).

SMILES | IC50 [1] [nM] | Ki [2] [nM]
C[C@H](Nc1nccc(Nc2cc(C3CC3)[nH]n2)n1)c1nccc2[nH]ccc12 [Compound I-4, N^2-((S)-1-(1H-pyrrolo[3,2-c]pyridin-4-yl)ethyl)-N^4-(5-cyclopropyl-1H-pyrazol-3-yl)pyrimidine-2,4-diamine] | 325 | 60
c1cc(Nc2cc(C3CC3)[nH]n2)nc(NCc2cnc3[nH]ccc3c2)n1 [Compound I-6, N^2-((1H-Pyrrolo[2,3-b]pyridin-5-yl)methyl)-N^4-(5-cyclopropyl-1H-pyrazol-3-yl)pyrimidine-2,4-diamine] | 709 | 72
C[C@H](Nc1nccc(Nc2cc(C3CC3)[nH]n2)n1)c1cc2cc[nH]c2cn1 [Compound I-7, (S)—N^2-(1-(1H-pyrrolo[2,3-c]pyridin-5-yl)ethyl)-N^4-(5-cyclopropyl-1H-pyrazol-3-yl)pyrimidine-2,4-diamine] | 68.4 | 5
CN(Cc1ccc2[nH]ccc2n1)c1nccc(Nc2cc(C3CC3)[nH]n2)n1 [Compound I-10, N^2-((1H-pyrrolo[3,2-b]pyridin-5-yl)methyl)-N^4-(5-cyclopropyl-1H-pyrazol-3-yl)-N^2-methylpyrimidine-2,4-diamine] | 1100 | 67
C[C@H](Nc1nccc(Nc2cc(C3CC3)[nH]n2)n1)c1ccc2[nH]ccc2n1 [Compound I-12, (S)—N^2-(1-(1H-pyrrolo[3,2-b]pyridin-5-yl)ethyl)-N^4-(5-cyclopropyl-1H-pyrazol-3-yl)pyrimidine-2,4-diamine] | 45.5 | 16
C[C@H](Nc1nccc(Nc2cc(C3CC(F)(F)C3)[nH]n2)n1)c1ccc2[nH]ccc2n1 [Compound I-16, (S)—N^2-(1-(1H-pyrrolo[3,2-b]pyridin-5-yl)ethyl)-N^4-(5-(3,3-difluorocyclobutyl)-1H-pyrazol-3-yl)pyrimidine-2,4-diamine] | 72.6 | 22
C[C@@H](c1ccc2[nH]ccc2n1)N(C)c1nccc(Nc2cc(C3CC3)[nH]n2)n1 [Compound I-18, (S)—N^2-(1-(1H-pyrrolo[3,2-b]pyridin-5-yl)ethyl)-N^4-(5-cyclopropyl-1H-pyrazol-3-yl)-N^2-methylpyrimidine-2,4-diamine] | 221 | 24

Further lines, results first:

IC50 [1] [nM] | Ki [2] [nM] | SMILES
191 | 52 | C[C@@H](c1ccc2[nH]ccc2n1)N(C)c1nccc(Nc2cc([C@@H]3C[C@@H]3F)[nH]n2)n1 [Compound I-24, N^2-((S)-1-(1H-pyrrolo[3,2-b]pyridin-5-yl)ethyl)-N^4-(5-((1S,2S)-2-fluorocyclopropyl)-1H-pyrazol-3-yl)-N^2-methylpyrimidine-2,4-diamine]
53.1 | 8 | C[C@@H](c1ccc2[nH]ccc2n1)N(C)c1nccc(Nc2cc([C@H]3C[C@@H]3F)[nH]n2)n1 [Compound I-28, N^2—((S)-1-(1H-pyrrolo[3,2-b]pyridin-5-yl)ethyl)-N^4-(5-((1R,2S)-2-fluorocyclopropyl)-1H-pyrazol-3-yl)-N^2-methylpyrimidine-2,4-diamine]
– | 494 | c1cc(Nc2cc(C3CC3)[nH]n2)nc(NCc2cncc3[nH]cnc23)n1 [Compound I-33, N^2-((3H-imidazo[4,5-c]pyridin-7-yl)methyl)-N^4-(5-cyclopropyl-1H-pyrazol-3-yl)pyrimidine-2,4-diamine]
– | 3 | C[C@H](Nc1nccc(Nc2cc(C3CC3)[nH]n2)n1)c1ncc2[nH]ccc2n1 [Compound I-35, (S)—N^2-(1-(5H-pyrrolo[3,2-d]pyrimidin-2-yl)ethyl)-N^4-(5-cyclopropyl-1H-pyrazol-3-yl)pyrimidine-2,4-diamine]
